# Test results from article PMC8329300, “X-ray crystallography reveals molecular recognition mechanism for sugar binding in a melibiose transporter MelB” (Communications Biology, 2021).
# Legend:
# [1] = target: T1, MelBSt D59C (Salmonella typhimurium, UniProt P30878, D59C); experiment: [3H]Melibiose transport time course with DW2 intact cells expressing MelBSt D59C; assay type: cell-based; settings: 0.4 mM [3H]melibiose
# T1 construct: Cys scanning mutagenesis for the full-length MelBSt; expressed in transfected cells; host or cells: E. coli DW2 (melA+, melB-, lacZ-Y-)
# T1 sequence (P30878 whole entry D59C): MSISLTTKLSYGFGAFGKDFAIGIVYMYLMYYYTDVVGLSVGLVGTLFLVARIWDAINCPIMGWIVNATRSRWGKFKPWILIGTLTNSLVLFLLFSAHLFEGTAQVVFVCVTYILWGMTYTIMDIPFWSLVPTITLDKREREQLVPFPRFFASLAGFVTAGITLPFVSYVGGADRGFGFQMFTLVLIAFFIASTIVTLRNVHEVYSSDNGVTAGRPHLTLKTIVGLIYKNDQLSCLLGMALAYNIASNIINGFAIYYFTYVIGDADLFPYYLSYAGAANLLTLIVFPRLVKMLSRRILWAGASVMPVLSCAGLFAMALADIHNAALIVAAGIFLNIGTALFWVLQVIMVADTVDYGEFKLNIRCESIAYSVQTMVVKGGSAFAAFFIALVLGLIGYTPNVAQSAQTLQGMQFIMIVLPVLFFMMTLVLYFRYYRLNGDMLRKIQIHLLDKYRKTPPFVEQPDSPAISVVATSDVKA
# Description: Fig. 1 Functional characterizations. a [^3H] Melibiose transport time course with intact cells. E. coli DW2 strain (melB^−, lacZ^−Y^−) expressed with the WT, D59C, or D59A MelBSt mutants were subjected to [^3H]melibiose active transport assay at 0.4 mM and 10 mCi/mmol in the presence of 20 mM or 100 mM NaCl or LiCl by a fast filtration method. Inset, melibiose fermentation assay. Transformants with DW2 strain were plated on MacConkey agar plates containing 30 mM melibiose as the sole carbohydrate source and pH sensor neutral red, and incubated at 37 °C for 16–18 h before imaging. Number of tests = 3, from different batch of cells or duplicate measurements from same batch of sample. b Ligand binding by Trp→dansyl galactoside (D^2G) FRET assay. Purified proteins at 1 μM concentration in 20 mM Tris-HCl, pH 7.5, 100 mM CholCl, 10% glycerol, and 0.03% UDM were subjected to steady-state fluorescence measurements as described in Methods. On the time-trace, 1.8 μL of 1 mM D^2G at 10 μM was added into 180 μL of protein solutions at 1-min point, followed by supplying 10 μL of 5 mM DDMB or 5 mM α-NPG to displace the bound D^2G. For testing Na^+ or Li^+ binding, they are added into the solution before displacement with the second sugar. The structure of DDMB or α-NPG is shown in a chair form, and the carbon positions are labeled. Glycosidic bonds are indicated by arrows. Both are α-galactosides containing a substituent at the anomeric carbon-1. The data were from duplicate measurements.
# The overexpression of MelBSt was carried out in the E. coli DW2 strain (melA^+, melB^−, and lacZ^−Y^−) from a constitutive expression plasmid pK95ΔAH/MelBSt/CHis10[9],[28],[33]. The D59C or D59A mutant with Cys or Ala at the position 59, respectively, was constructed previously[9] or in this study by QuikChange Site-Directed Mutagenesis kit and confirmed by DNA sequencing analysis. E. coli DW2 cells containing a given plasmid were grown in Luria-Bertani (LB) broth (5 g yeast extract and 10 g tryptone per liter with 171 mM NaCl) with 100 mg/L of ampicillin in a 37 °C shaker. The overnight cultures were diluted by 5% with LB broth supplemented with 0.5% glycerol and 100 mg/L of ampicillin, and constitutive overexpression was obtained by shaking at 30 °C for another 5 h.
# E. coli DW2 cells expressing MelBSt were washed with 100 mM KPi, pH 7.5, to remove Na^+ contamination as described previously. The cell pellets were resuspended with the assay buffer (100 mM KPi, pH 7.5, 10 mM MgSO4) and adjusted to A420 of 10 (∼0.7 mg protein/ml). Using a fast filtration, transport time course at 0.4 mM melibiose (at specific activity of 10 mCi/mmol) was carried out in the absence or presence of NaCl or LiCl at 20 mM or 100 mM, respectively, and intracellular melibiose was determined as described previously.
# [2] = target: T2, D59A MelBSt (Salmonella typhimurium, UniProt P30878, D59A); experiment: Trp→dansyl galactoside (D2G) FRET time trace (D59A); assay type: binding; settings: no Na+ or Li+ stimulation
# T2 construct: Cys scanning mutagenesis for the full-length MelBSt; His10 (C); made in house; host or cells: E. coli DW2
# T2 sequence (P30878 whole entry D59A): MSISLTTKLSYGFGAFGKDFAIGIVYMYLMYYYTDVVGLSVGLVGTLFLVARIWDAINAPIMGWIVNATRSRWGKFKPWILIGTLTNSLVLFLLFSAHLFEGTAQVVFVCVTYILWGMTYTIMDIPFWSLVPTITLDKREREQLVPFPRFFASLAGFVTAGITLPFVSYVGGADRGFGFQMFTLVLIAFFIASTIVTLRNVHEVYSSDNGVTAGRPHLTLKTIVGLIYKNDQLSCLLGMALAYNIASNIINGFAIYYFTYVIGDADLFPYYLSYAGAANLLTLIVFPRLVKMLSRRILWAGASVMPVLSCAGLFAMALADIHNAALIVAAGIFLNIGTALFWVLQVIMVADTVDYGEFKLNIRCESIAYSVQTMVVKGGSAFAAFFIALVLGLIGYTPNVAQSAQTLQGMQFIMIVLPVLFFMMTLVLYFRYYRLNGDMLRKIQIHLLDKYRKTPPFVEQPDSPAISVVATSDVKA
# Description: Fig. 1 Functional characterizations. a [^3H] Melibiose transport time course with intact cells. E. coli DW2 strain (melB^−, lacZ^−Y^−) expressed with the WT, D59C, or D59A MelBSt mutants were subjected to [^3H]melibiose active transport assay at 0.4 mM and 10 mCi/mmol in the presence of 20 mM or 100 mM NaCl or LiCl by a fast filtration method. Inset, melibiose fermentation assay. Transformants with DW2 strain were plated on MacConkey agar plates containing 30 mM melibiose as the sole carbohydrate source and pH sensor neutral red, and incubated at 37 °C for 16–18 h before imaging. Number of tests = 3, from different batch of cells or duplicate measurements from same batch of sample. b Ligand binding by Trp→dansyl galactoside (D^2G) FRET assay. Purified proteins at 1 μM concentration in 20 mM Tris-HCl, pH 7.5, 100 mM CholCl, 10% glycerol, and 0.03% UDM were subjected to steady-state fluorescence measurements as described in Methods. […]
# Steady-state fluorescence measurements were performed with an AMINCO-Bowman series 2 spectrometer with purified MelBSt at 1 μM in 20 mM Tris-HCl, pH 7.5, 100 mM CholCl, 10% glycerol, 0.03% UDM. Using an excitation wavelength at 290 nm, the emission intensity was recorded at 490 nm. […]
structure (smiles),measurement,setting,value
OC[C@H]1O[C@H](OCC2O[C@@H](O)[C@H](O)[C@@H](O)[C@@H]2O)[C@H](O)[C@@H](O)[C@H]1O (some centres unmarked) [Melibiose],Melibiose transport,"[1]; H+, Time 0.08",2.90
same,Melibiose transport,"[1]; H+, Time 0.17",4.95
same,Melibiose transport,"[1]; H+, Time 0.50",7.21
same,Melibiose transport,"[1]; H+, Time 1.00",7.87
same,Melibiose transport,"[1]; H+, Time 2.00",9.68
same,Melibiose transport,"[1]; H+, Time 5.00",7.94
same,Melibiose transport,"[1]; H+, Time 10.00",6.75
same,Melibiose transport,"[1]; H+, Time 30.00",4.22
same,Melibiose transport,"[1]; Li+, 20 mM, Time 0.08",4.23
same,Melibiose transport,"[1]; Li+, 20 mM, Time 0.17",7.46
same,Melibiose transport,"[1]; Li+, 20 mM, Time 0.50",9.40
same,Melibiose transport,"[1]; Li+, 20 mM, Time 1.00",8.14
same,Melibiose transport,"[1]; Li+, 20 mM, Time 2.00",8.43
same,Melibiose transport,"[1]; Li+, 20 mM, Time 5.00",9.92
same,Melibiose transport,"[1]; Li+, 20 mM, Time 10.00",9.02
same,Melibiose transport,"[1]; Li+, 20 mM, Time 30.00",7.58
same,Melibiose transport,"[1]; Li+, 100 mM, Time 0.08",5.34
same,Melibiose transport,"[1]; Li+, 100 mM, Time 0.17",7.70
same,Melibiose transport,"[1]; Li+, 100 mM, Time 0.50",7.46
same,Melibiose transport,"[1]; Li+, 100 mM, Time 1.00",5.16
same,Melibiose transport,"[1]; Li+, 100 mM, Time 2.00",7.88
same,Melibiose transport,"[1]; Li+, 100 mM, Time 5.00",5.54
same,Melibiose transport,"[1]; Li+, 100 mM, Time 10.00",7.56
same,Melibiose transport,"[1]; Li+, 100 mM, Time 30.00",11.83
same,Melibiose transport,"[1]; Na+, 20 mM, Time 0.08",4.91
same,Melibiose transport,"[1]; Na+, 20 mM, Time 0.17",5.04
same,Melibiose transport,"[1]; Na+, 20 mM, Time 0.50",6.31
same,Melibiose transport,"[1]; Na+, 20 mM, Time 1.00",7.41
same,Melibiose transport,"[1]; Na+, 20 mM, Time 2.00",16.16
same,Melibiose transport,"[1]; Na+, 20 mM, Time 5.00",8.09
same,Melibiose transport,"[1]; Na+, 20 mM, Time 10.00",6.24
same,Melibiose transport,"[1]; Na+, 20 mM, Time 30.00",9.30
same,Melibiose transport,"[1]; Na+, 100 mM, Time 0.08",0.60
same,Melibiose transport,"[1]; Na+, 100 mM, Time 0.17",4.32
same,Melibiose transport,"[1]; Na+, 100 mM, Time 0.50",10.86
same,Melibiose transport,"[1]; Na+, 100 mM, Time 1.00",12.92
same,Melibiose transport,"[1]; Na+, 100 mM, Time 2.00",6.61
same,Melibiose transport,"[1]; Na+, 100 mM, Time 5.00",1.42
same,Melibiose transport,"[1]; Na+, 100 mM, Time 10.00",5.04
same,Melibiose transport,"[1]; Na+, 100 mM, Time 30.00",9.00
"O=[N+]([O-])c1ccc(OC2OC(CO)C(O)C(O)C2O)cc1 [α-NPG, 4-nitrophenyl-α-D-galactopyranoside]",ligand binding by Trp→D2G FRET,[2],binds
